The species entered for experiment [1] is Sus scrofa. The experiment can be described thus: Reduction in LDL in swine with metabolic syndrome and myocardial ischemia. It is filed as functional. Details: scale not given: the % may be the effect or the level left.
The species entered for experiment [2] is Sus scrofa. Nature of the experiment: Reduction in total cholesterol in swine with metabolic syndrome and myocardial ischemia. It is filed as functional. Also on record: scale not given: the % may be the effect or the level left.
The subject of experiment [3] is Hamster. The experiment can be described thus: Reduction in serum total cholesterol level hyperlipidemic hamster relative to untreated control. Format: functional, Cricetinae. Details: scale not given: the % may be the effect or the level left.
The test system of experiment [4] is Homo sapiens. Nature of the experiment: Reduction in LDL-C level in hypercholesterolemic patient dosed for 3 months. Format: functional. Also on record: scale not given: the % may be the effect or the level left.
Experiment [5] concerns Hamster. The experiment can be described thus: Reduction in serum LDL-C level hyperlipidemic hamster relative to untreated control. Format: functional, Cricetinae. Also on record: scale not given: the % may be the effect or the level left.
For experiment [6], the system named is Homo sapiens. The experiment can be described thus: Reduction in triglyceride level in hypercholesterolemic patient dosed for 3 months. Details: scale not given: the % may be the effect or the level left. It is filed as functional.
In experiment [7] the test system is Hamster. Nature of the experiment: Increase in hepatic LDLR protein hyperlipidemic hamster relative to untreated control. It is filed as functional, Cricetinae.
The test system of experiment [8] is Hamster. The experiment can be described thus: Increase in hepatic LDLR mRNA hyperlipidemic hamster relative to untreated control. Format: functional, Cricetinae.
Experiment [9] relates to Homo sapiens. Nature of the experiment: Reduction in total cholesterol level in hypercholesterolemic patient dosed for 3 months. Format: functional. Details: scale not given: the % may be the effect or the level left.
The test system of experiment [10] is Rattus norvegicus. The experiment can be described thus: Hypercholesterolemic activity in rat assessed as reduction in plasma cholesterol level at 4 to 25 mg/kg/day. It is filed as functional. Also on record: scale not given: the % may be the effect or the level left.
Experiment [11] concerns Rattus norvegicus. The experiment can be described thus: Hypercholesterolemic activity in rat assessed as reduction in triglyceride level at 4 to 25 mg/kg/day. It is filed as functional. Also on record: scale not given: the % may be the effect or the level left.
Experiment [12] relates to Rattus norvegicus. Nature of the experiment: Hypercholesterolemic activity in male rat assessed as reduction in cholesterol level at 80 mg/kg/day for 7 days. It is filed as functional. Details: scale not given: the % may be the effect or the level left.
In experiment [13] the test system is Rattus norvegicus. The experiment can be described thus: Hypercholesterolemic activity in rat assessed as reduction in cholesterol level at 80 mg/kg/day for 8 days. Format: functional. Details: scale not given: the % may be the effect or the level left.
The test system of experiment [14] is Rattus norvegicus. The experiment can be described thus: Hypercholesterolemic activity in male rat assessed as reduction in triglyceride level at 80 mg/kg/day for 7 days. Format: functional. Details: scale not given: the % may be the effect or the level left.
For experiment [15], the system named is Rattus norvegicus. Nature of the experiment: Increase in HDL-C level in rat dosed for 7 days. Format: functional.
In experiment [16] the test system is Rattus norvegicus. The experiment can be described thus: Reduction in LDL-C level in rat dosed for 7 days. It is filed as functional. Details: scale not given: the % may be the effect or the level left.
Experiment [17] deals with Hamster. Nature of the experiment: Antidyslipidemic activity in HFD-fed dyslipidemic hamster assessed as reduction in serum triglyceride level at 50 mg/kg. It is filed as functional, Cricetinae. Details: scale not given: the % may be the effect or the level left.
In experiment [18] the test system is Hamster. The experiment can be described thus: Antidyslipidemic activity in HFD-fed dyslipidemic hamster assessed as HDLC/total cholesterol at 50 mg/kg. Format: functional, Cricetinae.
The subject of experiment [19] is Hamster. The experiment can be described thus: Antidyslipidemic activity in HFD-fed dyslipidemic hamster assessed as reduction in serum total cholesterol at 50 mg/kg. Details: scale not given: the % may be the effect or the level left. Format: functional, Cricetinae.
Experiment [20] relates to Hamster. Nature of the experiment: Antidyslipidemic activity in HFD-fed dyslipidemic hamster assessed as reduction in serum glycerol at 50 mg/kg. Format: functional, Cricetinae. Also on record: scale not given: the % may be the effect or the level left.
Experiment [21] is filed under the species Homo sapiens. Nature of the experiment: Increase in HDL-C in human at 500 mg/day. It is filed as functional.
The species entered for experiment [22] is Homo sapiens. Nature of the experiment: Reduction in serum lipid peroxides in human at 500 mg/day. Format: functional. Also on record: scale not given: the % may be the effect or the level left.
The species entered for experiment [23] is Homo sapiens. Nature of the experiment: Reduction in total cholesterol in human at 500 mg/day. Format: functional. Also on record: scale not given: the % may be the effect or the level left.
The species named for experiment [24] is Homo sapiens. Nature of the experiment: Reduction in LDL-C level in patient with moderate hypercholesterolemia at 20 to 80 mg/day. Format: functional. Also on record: scale not given: the % may be the effect or the level left.
Experiment [25] is filed under the species Homo sapiens. Nature of the experiment: Reduction in total cholesterol level in patient with moderate hypercholesterolemia at 20 to 80 mg/day. Format: functional. Details: scale not given: the % may be the effect or the level left.
Experiment [26] is filed under the species Homo sapiens. The experiment can be described thus: Increase in HDL-C level in patient with moderate hypercholesterolemia at 20 to 80 mg/day. It is filed as functional.
The species named for experiment [27] is Homo sapiens. Nature of the experiment: Reduction in triglyceride level in patient with moderate hypercholesterolemia at 20 to 80 mg/day. Format: functional. Details: scale not given: the % may be the effect or the level left.
The species entered for experiment [28] is Homo sapiens. The experiment can be described thus: Increase in HDL-C level in patient with heterozygous familial hypercholesterolaemia at 40 mg/day. It is filed as functional.
Experiment [29] is filed under the species Homo sapiens. Nature of the experiment: Reduction in triglyceride level in patient with heterozygous familial hypercholesterolaemia at 40 mg/day. Format: functional. Also on record: scale not given: the % may be the effect or the level left.
The species named for experiment [30] is Homo sapiens. The experiment can be described thus: Reduction in LDL-C level in patient with heterozygous familial hypercholesterolaemia at 40 mg/day. It is filed as functional. Also on record: scale not given: the % may be the effect or the level left.

With `Oc1ccc(/C=C/c2cc(O)cc(O)c2)cc1` [RESVERATROL], the Activity in the experiment filed under Sus scrofa [1] turned out to be 30%; in the experiment filed under Sus scrofa [2], 33%.
For the molecule `COc1ccc2cc3[n+](cc2c1OC)CCc1cc2c(cc1-3)OCO2` [BERBERINE], the Activity with Hamster [3] turned out to be 40%; in the experiment on Homo sapiens [4], 25%; in the experiment with Hamster [5] it was 42%; with Homo sapiens [6] it was 35%; in the experiment with Homo sapiens [9], 29%. Further, the “fold change (FC)” value came out at 2.6 in the experiment with Hamster [7] and 3.5 in the experiment with Hamster [8].
`C/C=C/c1cc(OC)c(OC)cc1OC` [TRANS-ASARONE]: the Activity in the experiment with Rattus norvegicus [10] is given as 40 - 60%; in the experiment with Rattus norvegicus [11], 40 - 60%; in the experiment with Rattus norvegicus [12], 57%; in the experiment with Rattus norvegicus [13], 38%; in the experiment on Rattus norvegicus [14] it was 42%.
Turning to `C/C=C/c1cc(OC)c(OC)c(OC)c1`, the values for the Activity in the experiment with Rattus norvegicus [15] and with Rattus norvegicus [16] were 56% and 47%, respectively.
Regarding `CC(C)=CCC/C(C)=C/CC/C(C)=C/CC/C(C)=C\CC/C(C)=C\CC/C(C)=C\CC/C(C)=C\CC/C(C)=C\CC/C(C)=C\CC/C(C)=C\CC/C(C)=C\CC/C(C)=C\CO`, the Activity was determined as 42% in the experiment with Hamster [17], 26% with Hamster [18], 25% in the experiment on Hamster [19] and 12% with Hamster [20].
Turning to `COc1cc(/C=C/C(=O)CC(=O)/C=C/c2ccc(O)c(OC)c2)ccc1O` [CURCUMIN], the Activity turned out to be 29% in the experiment filed under Homo sapiens [21], 33% in the experiment filed under Homo sapiens [22] and 12% in the experiment filed under Homo sapiens [23].
Consider `CC[C@H](C)C(=O)O[C@H]1C[C@@H](C)C=C2C=C[C@H](C)[C@H](CC[C@@H]3C[C@@H](O)CC(=O)O3)[C@H]21` [LOVASTATIN], for which the Activity is 24 - 40% in the experiment listed under Homo sapiens [24], 17 - 29% in the experiment filed under Homo sapiens [25], 6.6 - 9.5% in the experiment listed under Homo sapiens [26] and 10 - 19% in the experiment listed under Homo sapiens [27].
In the case of `CCC(C)(C)C(=O)O[C@H]1C[C@@H](C)C=C2C=C[C@H](C)[C@H](CC[C@@H]3C[C@@H](O)CC(=O)O3)[C@H]21` [SIMVASTATIN], the Activity in the experiment filed under Homo sapiens [28] is reported as 10 - 13%; in the experiment filed under Homo sapiens [29] it was 21 - 31%; in the experiment filed under Homo sapiens [30] it was 43 - 45%.

Values taken from ChEMBL document CHEMBL4130470, “Lipid lowering agents of natural origin: An account of some promising chemotypes” (2017).
